The values that follow come from ChEMBL document CHEMBL1132883, “Cyclopentadienyltricarbonylrheniumbenzazepines: synthesis and binding affinity” (Bioorg Med Chem Lett, 2000).

Holding throughout (format): tissue-based
Assay [1] has as its target D(1A) dopamine receptor (Rattus norvegicus, UniProt P18901). The experiment in a line: Compound was evaluated for affinity towards dopamine D1-like receptor in homogenate of caudate putamen tissue from rat brain.
In assay [2] the target is 5-hydroxytryptamine receptor 2A (Rattus norvegicus, UniProt P14842). The experiment in a line: Compound was evaluated for affinity towards cerebral 5-hydroxytryptamine 2A receptor in homogenate of caudate putamen tissue from rat brain.
The target of assay [3] is T1, 5-hydroxytryptamine receptor 2C (Rattus norvegicus, UniProt P08909).
T1 sequence (P08909 whole entry): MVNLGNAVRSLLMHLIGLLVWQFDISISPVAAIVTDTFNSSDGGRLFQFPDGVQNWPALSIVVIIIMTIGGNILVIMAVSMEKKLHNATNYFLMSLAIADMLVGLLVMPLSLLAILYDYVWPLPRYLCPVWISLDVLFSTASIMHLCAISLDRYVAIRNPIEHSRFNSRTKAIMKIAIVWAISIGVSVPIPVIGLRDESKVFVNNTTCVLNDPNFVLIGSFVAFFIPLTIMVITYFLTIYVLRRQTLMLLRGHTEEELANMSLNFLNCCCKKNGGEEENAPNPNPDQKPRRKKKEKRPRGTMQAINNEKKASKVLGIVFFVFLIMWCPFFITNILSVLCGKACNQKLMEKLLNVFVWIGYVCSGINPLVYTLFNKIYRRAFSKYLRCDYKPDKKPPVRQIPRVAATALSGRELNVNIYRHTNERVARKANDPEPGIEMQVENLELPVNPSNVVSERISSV
The experiment in a line: Compound was evaluated for affinity towards cerebral 5-hydroxytryptamine 2C receptor in homogenate of caudate putamen tissue from rat brain.

5-hydroxytryptamine receptor 2A, sequence (P14842 whole entry): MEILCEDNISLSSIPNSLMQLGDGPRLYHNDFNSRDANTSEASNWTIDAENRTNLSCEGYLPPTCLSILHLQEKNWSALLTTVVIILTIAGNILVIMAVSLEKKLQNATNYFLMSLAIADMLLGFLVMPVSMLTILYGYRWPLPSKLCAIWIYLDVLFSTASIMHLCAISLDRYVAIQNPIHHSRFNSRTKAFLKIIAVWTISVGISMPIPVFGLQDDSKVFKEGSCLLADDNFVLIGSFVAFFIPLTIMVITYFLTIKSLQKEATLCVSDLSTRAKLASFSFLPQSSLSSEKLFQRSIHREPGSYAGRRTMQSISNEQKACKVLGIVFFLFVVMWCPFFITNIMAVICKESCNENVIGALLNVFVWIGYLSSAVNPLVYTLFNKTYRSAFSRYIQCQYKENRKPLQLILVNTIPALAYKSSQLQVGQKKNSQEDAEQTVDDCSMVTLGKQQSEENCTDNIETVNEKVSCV
D(1A) dopamine receptor, sequence (P18901 whole entry): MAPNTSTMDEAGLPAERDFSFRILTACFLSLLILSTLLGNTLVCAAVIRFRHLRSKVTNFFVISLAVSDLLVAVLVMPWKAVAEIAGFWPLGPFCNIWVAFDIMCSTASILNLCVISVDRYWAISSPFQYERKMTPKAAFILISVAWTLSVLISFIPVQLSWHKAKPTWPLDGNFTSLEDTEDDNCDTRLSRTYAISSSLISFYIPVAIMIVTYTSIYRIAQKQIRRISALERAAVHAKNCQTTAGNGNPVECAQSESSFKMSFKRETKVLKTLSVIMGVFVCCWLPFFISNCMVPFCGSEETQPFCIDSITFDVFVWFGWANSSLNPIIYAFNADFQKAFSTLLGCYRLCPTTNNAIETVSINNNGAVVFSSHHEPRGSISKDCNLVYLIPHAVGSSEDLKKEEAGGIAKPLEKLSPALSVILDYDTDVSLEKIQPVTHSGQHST

For `CN1CCc2cc(Cl)c(O)cc2C(c2ccccc2Br)C1` (stereo not drawn), the Ki in assay [1] is 0.7 nM; in assay [2] it was 22.1 nM; in assay [3], 11.8 nM.
For `CN1CCc2cc(Cl)c(O)cc2C(c2cccc(Br)c2)C1` (stereo not drawn), the Ki in assay [1] was found to be 0.26 nM; in assay [2] it was 8.5 nM; in assay [3], 2.08 nM.
With `CN1CCc2cc(Cl)c(O)cc2[C@@H](c2ccccc2)C1` [SCH-23390], the inhibitory constant (Ki) was 10.8 nM in assay [2] and 12.5 nM in assay [3].

By Ki is commonly meant the equilibrium dissociation constant of an inhibitor or competing ligand from its target.
